Assays:
[1] = target: T1, Avi-KRAS G12D (1-169) GppNHp/RAF1 RBD-3xFLAG (52-151) (Homo sapiens, UniProt P01116, G12D); experiment: Raf1-KRAS G12D-GppNHP disruption HTRF assay (Biological Example 1); assay type: binding
T1 construct: Avi-KRAS G12D (1-169)
Method in brief: (§1)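 Measured with a KRAS/RAF1 HTRF assay at pH 7.5 in 10% DMSO, with two 1 h room-temperature incubations with shaking.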

[2] = target: T2, Avi-KRAS G12R (1-169) GppNHp/RAF1 RBD-3xFLAG (52-151) (Homo sapiens, UniProt P01116, G12R); experiment: Raf1-KRAS G12R-GppNHP disruption HTRF assay (Biological Example 1); assay type: binding
T2 construct: Avi-KRAS G12R (1-169)
T2 sequence (P01116 1-169 isoform P01116-2 G12R): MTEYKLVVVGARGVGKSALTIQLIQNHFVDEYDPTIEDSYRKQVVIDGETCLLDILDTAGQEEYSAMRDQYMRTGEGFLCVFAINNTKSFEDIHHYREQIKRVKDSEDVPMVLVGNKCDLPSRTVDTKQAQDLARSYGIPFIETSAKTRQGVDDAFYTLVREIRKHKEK
Method in brief: as §1

GP2d cells (KRAS G12D) = experiment: Cell-based pERK HTRF assay in GP2d cell (Biological Example 2); details: GP2d, GP2d (KRAS G12D) cells
Method in brief: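 Treatment with test compounds lasted one hour in DMEM containing 10% FBS, with DMSO held at 0.25%. Dilution series: 9 points, half-log spacing, highest 1 μM or 100 nM. Lysates were incubated 4–24 h at room temperature with antibody mix, then HTRF was read at 320 nm excitation.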

[3] = target: T3, Avi-KRAS WT (2-169) GTP/RAF1 RBD-3xFLAG (51-131) (Homo sapiens, UniProt P01116); experiment: Raf1-KRAS WT-GTP disruption HTRF assay (Biological Example 3); assay type: binding; details: KRAS WT, GTP-loaded
T3 construct: Avi-KRAS WT (2-169)
T3 sequence (P01116 2-169 isoform P01116-2): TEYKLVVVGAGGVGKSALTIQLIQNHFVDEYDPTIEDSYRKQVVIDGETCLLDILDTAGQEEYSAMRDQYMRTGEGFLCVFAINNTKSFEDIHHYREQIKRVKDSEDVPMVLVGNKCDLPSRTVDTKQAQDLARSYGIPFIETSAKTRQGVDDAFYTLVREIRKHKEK
Method in brief: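 Compounds were titrated 10-point, 3-fold from 30 μM against preformed KRAS-GTP:RAF1 RBD (51-131) complexes at 50 nM, using KRAS 2-169 as WT, G12C, G12D or G12V. After 1 h at room temperature in Tris pH 7.5 buffer with MgCl2 and 10% DMSO, time-resolved fluorescence was read. Results are percent activity versus DMSO.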

[4] = KRAS G12D, GppNHp-loaded, class symbols
[5] = KRAS G12R, GppNHp-loaded, class symbols
[6] = KRAS G12D, GppNHp-loaded, Table 11
[7] = KRAS G12R, GppNHp-loaded, Table 11

T1 sequence (P01116 1-169 isoform P01116-2 G12D): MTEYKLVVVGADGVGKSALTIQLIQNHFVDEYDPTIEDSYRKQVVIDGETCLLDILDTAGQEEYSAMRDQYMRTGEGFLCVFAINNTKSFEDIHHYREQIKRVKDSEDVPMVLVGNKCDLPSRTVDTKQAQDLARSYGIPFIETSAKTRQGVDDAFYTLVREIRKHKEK

Compound | IC50 [1, 4] | IC50 [2, 5] | IC50 (GP2d cells (KRAS G12D)) | IC50 (GP2d cells (KRAS G12D); pERK HTRF, class symbols) | IC50 [3] | IC50 ([1]; KRAS G12D-GppNHp/RAF1 RBD HTRF) | IC50 ([2]; KRAS G12R-GppNHp/RAF1 RBD HTRF) | IC50 (GP2d cells (KRAS G12D); pERK HTRF) | IC50 [1, 6] | IC50 [2, 7]
[2H]C1([2H])O[C@@H]2C[C@H]1N(c1nc(OC[C@@]34CCCN3C[C@H](F)C4)nc3c(F)c(-c4ccc(F)c5sc(N)c(C#N)c45)c(C(F)(F)F)cc13)C2 [Compound 371] | – | – | < 100 nM | – | 100 to 1000 nM | 100 to 1000 nM | 100 to 1000 nM | < 100 nM | – | –
N#Cc1c(N)sc2c(F)ccc(-c3c(C(F)(F)F)cc4c(N5C[C@H]6C[C@@H]5CO6)nc(OC[C@@]56CCCN5C[C@H](F)C6)nc4c3F)c12 [Compound 253, 2-amino-7-fluoro-4-[8-fluoro-2-[[(2R,8S)-2-fluoro-1,2,3,5,6,7-hexahydropyrrolizin-8-yl]methoxy]-4-[(1R,4R)-2-oxa-5-azabicyclo[2.2.1]heptan-5-yl]-6-(trifluoromethyl)quinazolin-7-yl]benzothiophene-3-carbonitrile] | – | – | < 100 nM | – | 100 to 1000 nM | – | – | < 100 nM | 100 to 1000 nM | 100 to 1000 nM
N#Cc1c(N)sc2c(F)ccc(-c3c(C(F)(F)F)cc4c(N5CCNS(=O)(=O)CC5)nc(OC[C@@]56CCCN5C[C@H](F)C6)nc4c3F)c12 [Compound 245] | – | – | < 100 nM | – | 100 to 1000 nM | – | – | < 100 nM | < 100 nM | < 100 nM
CCN(c1nc(OC[C@@]23CCCN2C[C@H](F)C3)nc2c(F)c(-c3ccc(F)c4sc(N)c(C#N)c34)c(C(F)(F)F)cc12)[C@H]1CC(=O)N(C2CC2)C1 (atropisomer, axis not shown) [Compound 615] | < 100 nM | < 100 nM | < 100 nM | < 100 nM | 100 to 1000 nM | – | – | – | – | –
C/C=C/C(=O)N1CC[C@H](N(CC)c2nc(OC[C@@]34CCCN3C[C@H](F)C4)nc3c(F)c(-c4ccc(F)c5sc(N)c(C#N)c45)c(C(F)(F)F)cc23)C1 (atropisomer, axis not shown) [Compound 674] | < 100 nM | < 100 nM | 100 to 1000 nM | < 100 nM | ≤ 100 nM | – | – | – | – | –

Results, then the compound that gave them:

IC50 [1, 4] | IC50 [2, 5] | IC50 (GP2d cells (KRAS G12D)) | IC50 (GP2d cells (KRAS G12D); pERK HTRF, class symbols) | IC50 [3] | IC50 ([1]; KRAS G12D-GppNHp/RAF1 RBD HTRF) | IC50 ([2]; KRAS G12R-GppNHp/RAF1 RBD HTRF) | IC50 (GP2d cells (KRAS G12D); pERK HTRF) | IC50 [1, 6] | IC50 [2, 7] | Compound
< 100 nM | < 100 nM | < 100 nM | < 100 nM | ≤ 100 nM | – | – | – | – | – | CCN(c1nc(OC[C@@]23CCCN2C[C@H](F)C3)nc2c(F)c(-c3ccc(F)c4sc(N)c(C#N)c34)c(C(F)(F)F)cc12)[C@H]1CCN(C(=O)C2C[C@@H]2F)C1 (some centres unmarked) [Compound 692]
< 100 nM | < 100 nM | < 100 nM | < 100 nM | 1000 to 10000 nM | – | – | – | – | – | N#Cc1c(N)sc2c(F)ccc(-c3c(C(F)(F)F)cc4c(N5CCn6nc(C(=O)N7CCOCC7)cc6C5)nc(OCC56CCCN5CC(F)C6)nc4c3F)c12 (centres unmarked) [Compound 646]

Source: US20260042764A1, “COMPOSITIONS AND METHODS FOR INHIBITION OF KRAS” (TheRas, Inc., priority 2022, published 2026)
